# Source: ChEMBL document CHEMBL5154641, “Targeting transthyretin in Alzheimer's disease: Drug discovery of small-molecule chaperones as disease-modifying drug candidates for Alzheimer's disease” (Eur J Med Chem, 2021)
# Active and inactive are the calls of the source. The calls are words filed in the database; no cut-off is given here.
# How the values were obtained:
# [1] = species: Homo sapiens; assay: Binding affinity to wild type TTR/Amyloid beta (1 to 40 residues) binary complex (unknown origin) assessed as change in enthalpy binary by isothermal titration calorimetry
# [2] = species: Homo sapiens; assay: Binding affinity to wild type TTR/Amyloid beta (1 to 40 residues) binary complex (unknown origin) assessed as Gibbs free energy change for binary complex by isothermal titration calorimetry
# [3] = biological target: Transthyretin (Homo sapiens) (UniProt P02766); assay: Displacement of [125I]-T4 from human recombinant TTR expressed in Escherichia coli BL21(DE3) Star by gamma spectrometric analysis
# [4] = system: SH-SY5Y; assay: Neuroprotective activity against amyloid beta (1 to 42 residues)-induced cell injury in human SH-SY5Y cells assessed as reduction in caspase 3 level; format: functional, cell-based
# [5] = species: Homo sapiens; assay: Binding affinity to wild type TTR/Amyloid beta (1 to 40 residues) binary complex (unknown origin) assessed as change in entropy for binary complex by isothermal titration calorimetry
# [6] = Binding affinity to wild type TTR/Amyloid beta (1 to 40 residues) binary complex (unknown origin) assessed as complex dissociation constant by isothermal titration calorimetry; design: species or system Homo sapiens
Compound,deltaH [1],deltaG [2],Activity [3],Activity [4],-TdeltaS [5],Kd [6]
O=C(O)c1cc(-c2ccc(F)cc2F)cc(I)c1O,-1.54 kcal/mol,-7.67 kcal/mol,Active,Active,-6.13 kcal/mol,–
C=Cc1cc2oc(-c3ccc(O)c(F)c3)nc2cc1O,–,–,Active,–,–,–
CC/C(=C(/CC)c1ccc(O)cc1)c1ccc(O)cc1,–,–,Active,–,–,–
CCCCN(CCCC)C[C@H](O)c1cc(Cl)cc2c1-c1ccc(Cl)cc1/C2=C/c1ccc(Cl)cc1,–,–,Active,–,–,–
CCc1ccc(CCOc2ccc(CC3SC(=O)NC3=O)cc2)nc1 (stereo not drawn),–,–,Active,–,–,–
COc1ccccc1Oc1ccc(N(Cc2cccnc2)S(=O)(=O)CC(F)(F)F)cc1,–,–,Active,–,–,–
Cc1ccc(C(=O)c2cc(O)c(O)c([N+](=O)[O-])c2)cc1,–,–,Active,–,–,–
O=C(O)CCNC(=O)CCNC(=O)c1cc(-c2ccc(F)cc2F)cc(I)c1O,–,–,Active,–,–,–
O=C(O)c1cc(-c2ccc3ccccc3c2)cc(I)c1O,–,–,Active,–,–,–
O=C(O)c1cc(/N=N/c2cccc([N+](=O)[O-])c2)cc(I)c1O,–,–,Active,–,–,–
O=C(O)c1cc(/N=N/c2cccc([N+](=O)[O-])c2)ccc1O,–,–,Active,–,–,–
O=C(O)c1ccc2nc(-c3cc(Cl)cc(Cl)c3)oc2c1,–,–,Active,–,–,–
Oc1c(I)cc(Cl)c2cccnc12,–,–,Active,–,–,–
Oc1c(I)cc(I)cc1I,–,–,Active,–,–,–
O=C(O)c1ccccc1Nc1cccc(C(F)(F)F)c1 [FLUFENAMIC ACID],-3.66 kcal/mol,-8.28 kcal/mol,–,Active,4.62 kcal/mol,2340 nM
O=c1cc(-c2ccc(O)c(O)c2)oc2cc(O)cc(O)c12 [LUTEOLIN],-0.53 kcal/mol,-7.93 kcal/mol,Active,Active,7.3 kcal/mol,1520 nM
O=C(O)c1cc(/N=N/c2ccc(O)c(C(=O)O)c2)ccc1O [OLSALAZINE],-8.72 kcal/mol,-8.7 kcal/mol,–,Active,0.02 kcal/mol,810 nM
CC1=C(CC(=O)O)c2cc(F)ccc2/C1=C\c1ccc([S+](C)[O-])cc1 (stereo not drawn) [SULINDAC],-3.23 kcal/mol,-8.15 kcal/mol,–,–,-4.92 kcal/mol,3420 nM
